Assay results published in patent US8748457B2, “2-amino-2- [8-(dimethyl carbamoyl)- 8-aza- bicyclo [3.2.1] oct-3-yl]-exo- ethanoyl derivatives as potent DPP-IV inhibitors” (Lupin Limited, priority 2009, dated 2014).
Counter-ions that a name gives are not always drawn. Like-named read-outs stand apart in the source and are kept apart here.

Key:
human recombinant DPP-IV = biological target: T1, human recombinant DPP-IV (Homo sapiens, UniProt P27487); experiment: Inhibition of human recombinant DPP-IV (Gly-Pro-AMC fluorometric assay); type: biochemical
T1 construct: purchased R&D Systems, USA
Experimental: Inhibition of Human Recombinant DPP-IV
The proteolytic activity of human recombinant DPP-IV was determined by following the hydrolysis of Gly-Pro-7-amino-4-methylcoumarin (Gly-Pro-AMC) and the fluorometric quantitation of the liberated AMC. Assays were routinely carried out in 96-well flat-bottom black microwell plates. The reaction mixture (100 μl) contained 10 ng of human recombinant DPP-IV enzyme (produced in-house or procured from R&D Systems, USA) in the assay buffer (25 mM Tris-HCl, pH 7.4, 140 mM NaCl, 10 mM KCl and 0.1 mg/ml BSA) and 50 μM Gly-Pro-AMC. After incubation of assay plates at 30° C. for 30 min, the hydrolysis of Gly-Pro-AMC was monitored in a fluorescence microplate reader (Molecular Devices SpectraMax M5), with excitation and emission wavelengths set at 360 nm and 460 nm, respectively.
The inhibition of DPP-IV activity by test compounds was routinely performed by preincubating the enzyme with test compound (10 and 100 nM for primary screening and 8 concentrations from 0.1 to 1000 nM for the dose-response study) or vehicle (0.01% DMSO) for 15 min at 30° C., in a total volume of 90 μl. Test compounds were dissolved in DMSO at a concentration of 10 mM and serially diluted further in assay buffer. The enzyme reaction was initiated by the addition of Gly-Pro-AMC, followed by incubation of assay plates for 30 min at 30° C. and the liberated AMC was measured as described above. A known inhibitor of DPP-IV (positive control) was always included in the assay. Test compounds at various concentrations were always evaluated in duplicate, along with substrate blanks, vehicle controls and positive controls.
The results are expressed as percent inhibition of the enzyme activity relative to vehicle controls. Dose-response studies were conducted for those compounds exerting ≧50% inhibition of activity at 10 nM in primary screening. IC50, defined as the inhibitor concentration which caused a 50% decrease of the activity under assay conditions, was computed using GraphPad Prism software, version 5.0. […]

plasma DPP-IV = biological target: T2, plasma DPP-IV (Canis lupus familiaris, UniProt A0A8I3Q2I8); experiment: Measurement of plasma DPP-IV activity in Beagle dogs; type: in vivo; conditions: dog, male Beagle dogs, single oral dose 3 mg/kg p.o.
T2 construct: from tissue; host or cells: EDTA-plasma of male Beagle dogs after oral dosing (ex vivo)
Experimental: A. Measurement of Plasma DPP-IV Activity in Beagle Dogs
Overnight-fasted male animals were administered either vehicle or single oral dose of compound. Blood samples were collected prior to dosing and for 12 hours post dose into tubes containing EDTA. EDTA-plasma was separated and DPP-IV activity was measured using a fluorometric assay. Assays were carried out in 96-well flat-bottom black microwell plates. A typical reaction contained 25 μl plasma, 50 μl of 50 μM substrate (Gly-Pro-AMC) and 25 μl assay buffer (25 mM Tris-HCl, pH 7.4, 140 mM NaCl, 10 mM KCl and 1% BSA) in a total reaction volume of 100 μl. Plasma samples were incubated with the substrate for 30 min at 30° C., following which the fluorescence was measured in a microplate fluorescence reader (POLARstar Galaxy), with excitation and emission wavelengths set at 360 nm and 460 nm, respectively. Percent inhibition in plasma DPP-IV activity due to compounds was calculated by comparing with plasma from vehicle-treated animals.

T1 sequence (P27487 whole entry): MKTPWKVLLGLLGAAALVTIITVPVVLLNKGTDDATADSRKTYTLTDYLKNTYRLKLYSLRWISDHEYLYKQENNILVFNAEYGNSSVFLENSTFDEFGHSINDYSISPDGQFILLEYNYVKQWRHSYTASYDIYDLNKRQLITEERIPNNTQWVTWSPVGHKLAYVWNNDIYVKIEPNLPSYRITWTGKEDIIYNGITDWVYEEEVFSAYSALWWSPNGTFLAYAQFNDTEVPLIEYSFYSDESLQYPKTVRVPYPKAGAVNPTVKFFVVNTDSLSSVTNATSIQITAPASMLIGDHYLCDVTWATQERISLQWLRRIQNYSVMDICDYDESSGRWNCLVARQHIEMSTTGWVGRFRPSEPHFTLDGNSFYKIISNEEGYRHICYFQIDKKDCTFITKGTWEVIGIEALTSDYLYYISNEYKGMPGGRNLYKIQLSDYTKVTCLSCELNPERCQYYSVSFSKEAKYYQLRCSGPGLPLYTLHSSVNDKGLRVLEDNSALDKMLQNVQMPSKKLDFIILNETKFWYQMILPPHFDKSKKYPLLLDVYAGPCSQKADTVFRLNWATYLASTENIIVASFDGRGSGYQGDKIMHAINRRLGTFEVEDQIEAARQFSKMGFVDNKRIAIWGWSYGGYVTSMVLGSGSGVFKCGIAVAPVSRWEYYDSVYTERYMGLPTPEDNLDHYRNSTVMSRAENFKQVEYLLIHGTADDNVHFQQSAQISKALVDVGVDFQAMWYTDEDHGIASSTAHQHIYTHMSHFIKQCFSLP
T2 sequence (A0A8I3Q2I8 1-765): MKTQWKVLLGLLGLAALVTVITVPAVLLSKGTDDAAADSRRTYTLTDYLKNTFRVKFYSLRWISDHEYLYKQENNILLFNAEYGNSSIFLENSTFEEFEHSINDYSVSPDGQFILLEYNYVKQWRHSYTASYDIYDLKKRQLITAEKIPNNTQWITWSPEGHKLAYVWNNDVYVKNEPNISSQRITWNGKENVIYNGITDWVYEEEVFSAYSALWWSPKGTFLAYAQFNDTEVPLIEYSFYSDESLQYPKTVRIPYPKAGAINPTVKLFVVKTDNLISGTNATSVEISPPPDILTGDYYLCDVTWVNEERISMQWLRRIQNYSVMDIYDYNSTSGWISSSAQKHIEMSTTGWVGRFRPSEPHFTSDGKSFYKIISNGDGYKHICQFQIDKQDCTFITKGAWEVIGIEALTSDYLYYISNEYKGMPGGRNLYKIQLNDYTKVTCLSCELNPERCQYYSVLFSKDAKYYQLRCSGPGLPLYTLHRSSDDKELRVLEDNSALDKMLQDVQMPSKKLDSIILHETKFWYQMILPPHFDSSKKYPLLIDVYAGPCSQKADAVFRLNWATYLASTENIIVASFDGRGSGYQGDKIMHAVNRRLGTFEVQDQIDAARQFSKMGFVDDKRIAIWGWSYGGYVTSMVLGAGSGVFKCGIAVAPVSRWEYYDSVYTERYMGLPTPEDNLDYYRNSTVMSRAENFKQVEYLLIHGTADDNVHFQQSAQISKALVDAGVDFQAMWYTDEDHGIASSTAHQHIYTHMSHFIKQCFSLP

C#C[C@H]1CC[C@@H](C#N)N1C(=O)[C@@H](N)C1CC2CCC(C1)N2C(=O)N(C)C (stereo partly drawn) (as salt: salt) [Compound 2, (2S,5R)-1-{(2S)-2-Amino-2-[8-(dimethylcarbamoyl)-8-aza-bicyclo[3.2.1]oct-3-yl]-exo-ethanoyl}-5-ethynyl-pyrrolidin-2-carbonitrile trifluoro acetic acid salt]
melting point: 165 to 167 °C

C#C[C@H]1CC[C@@H](C#N)N1C(=O)[C@@H](N)C1CC2CCC(C1)N2C(=O)N(C)C (stereo partly drawn) [Compound 2, (2S,5R)-1-{(2S)-2-Amino-2-[8-(dimethylcarbamoyl)-8-aza-bicyclo[3.2.1]oct-3-yl]-exo-ethanoyl}-5-ethynyl-pyrrolidin-2-carbonitrile trifluoro acetic acid salt]
IC50 (human recombinant DPP-IV; 50 μM Gly-Pro-AMC, 15 min preincubation, 30 min at 30° C.): 3.3 nM | inhibition at 3 mg/kg (plasma DPP-IV; 0.5 h post dose, read-out: Plasma DPP-IV Inhibition (%) 0.5 h): 91% | inhibition at 3 mg/kg (plasma DPP-IV; 1 h post dose, read-out: Plasma DPP-IV Inhibition (%) 1 h): 85% | inhibition at 3 mg/kg (plasma DPP-IV; 2 h post dose, read-out: Plasma DPP-IV Inhibition (%) 2 h): 92% | inhibition at 3 mg/kg (plasma DPP-IV; 3 h post dose, read-out: Plasma DPP-IV Inhibition (%) 3 h): 90% | inhibition at 3 mg/kg (plasma DPP-IV; 4 h post dose, read-out: Plasma DPP-IV Inhibition (%) 4 h): 85% | inhibition at 3 mg/kg (plasma DPP-IV; 6 h post dose, read-out: Plasma DPP-IV Inhibition (%) 6 h): 72% | inhibition at 3 mg/kg (plasma DPP-IV; 8 h post dose, read-out: Plasma DPP-IV Inhibition (%) 8 h): 68% | inhibition at 3 mg/kg (plasma DPP-IV; 10 h post dose, read-out: Plasma DPP-IV Inhibition (%) 10 h): 67% | inhibition at 3 mg/kg (plasma DPP-IV; 12 h post dose, read-out: Plasma DPP-IV Inhibition (%) 12 h): 62%

CN(C)C(=O)N1C2CCC1CC([C@H](N)C(=O)N1[C@H](C#N)C[C@@H]3C[C@@H]31)C2 (stereo partly drawn) [Compound 1, (1S,3S,5S)-2-{(2S)-2-Amino-2-[8-(dimethylcarbamoyl)-8-aza-bicyclo[3.2.1]-oct-3-yl]-exo-ethanoyl}-2-azabicyclo[3.1.0]-hexane-3-carbonitrile trifluoro acetic acid salt]
inhibition at 0.01 µM (human recombinant DPP-IV; compound at 10 nM (primary screening)): 69% | inhibition at 0.1 µM (human recombinant DPP-IV; compound at 100 nM (primary screening)): 94.8%

CN(C)C(=O)N1C2CCC1CC([C@H](N)C(=O)N1[C@H](C#N)C[C@@H]3C[C@@H]31)C2 (stereo partly drawn) (as salt: salt) [Compound 1, (1S,3S,5S)-2-{(2S)-2-Amino-2-[8-(dimethylcarbamoyl)-8-aza-bicyclo[3.2.1]-oct-3-yl]-exo-ethanoyl}-2-azabicyclo[3.1.0]-hexane-3-carbonitrile trifluoro acetic acid salt]
melting point: 178 to 180 °C
